Measured values taken from the NIST ThermoML archive (doi:10.1021/je900298e).
Numbers after ± are expanded uncertainties.

Conditions: 101.33 kPa, Liquid

CCCC[N+]1(C)CCCC1.O=S(=O)([N-]S(=O)(=O)C(F)(F)F)C(F)(F)F
mass density (289 K): 1404.3 ± 1.6 kg/m3
mass density (291 K): 1402.6 ± 1.5 kg/m3
mass density (293 K): 1401 ± 1.5 kg/m3
mass density (295 K): 1399.4 ± 1.5 kg/m3
mass density (297.05 K): 1397.8 ± 1.5 kg/m3
mass density (299.05 K): 1396.2 ± 1.5 kg/m3
mass density (301.05 K): 1394.6 ± 1.5 kg/m3
mass density (303.1 K): 1393.1 ± 1.5 kg/m3
mass density (305.1 K): 1391.5 ± 1.5 kg/m3
mass density (307.1 K): 1390 ± 1.5 kg/m3
mass density (309.1 K): 1388.5 ± 1.5 kg/m3
